This is an account of results in patent US7102000B2, “Heterocyclic amide derivatives for the treatment of diabetes and other diseases” (Incyte San Diego Inc., priority 2002, dated 2006).

Series [1] in a line: Oral bioavailability, single dose pharmacokinetic study in rats (plasma concentration by HPLC). Format: in vivo, Sprague Dawley rats. As to conditions: rat; for concentration of compound in plasma: single oral dose 10 mg/kg in 10% HPβCD, 0.5–26 hours, FIG. 7. The text has this: Oral bioavailability is an important pharmaceutical characteristic for a compound to advance through drug development. A basic assessment of the oral bioavailability of a compound can be done in a single dose pharmacokinetic study in wild type rats.
Six to eight week-old male Sprague Dawley rats (Harlan) were housed in a fixed 12–12- hr artificial light-dark cycle, and maintained on a standard rodent diet provided ad libitum. Animals were allowed two days to acclimate in this experimental environment prior to the initiation of the study. Compounds 24 and 25 were dissolved in a 10% hydroxypropyl beta cyclodextrin solution and administered by oral gavage in a final dose of 10 mg/kg in a volume of 5 ml/kg. Treatment groups were divided as follows:
Treatment groups(n=3/group): • 1) Compound 24 (10 mg/kg) • 2) Compound 25 (10 mg/kg)
Each animal received a single treatment, after which, the animal was bled from the tail vein at the following time points: 0.5, 1, 2, 4, 6, 9, 12, and 26 hours after treatment. To measure the concentration of each compound in plasma, blood samples were collected in heparin-coated tubes, and the plasma was isolated and analyzed by HPLC.

The test system of series [2] is db/db mutant mice. As to the kind of experiment: Oral treatment of type 2 diabetes in db/db mutant mice (serum glucose, triglyceride). Format: in vivo, mouse. On the procedure: Experimental Procedure: Seven week-old female db/db mutant mice (C57BL/KsJ-db +/+m; Jackson Labs, Bar Harbour, Me.) were housed in a fixed 12—12-hr artificial light-dark cycle, and maintained on a standard high fat diet (containing at least 11% crude fat) provided ad libitum (Teklad S-2335). Animals were allowed two days to acclimate in this experimental environment prior to the initiation of the study. Prior to initiation of treatment, the animals were bled from the tail vein (100–200 μL of whole blood) and serum levels of glucose and triglycerides were measured in duplicate (Trinder kits; Sigma, St. Louis, Mo.). Based on these initial measures, animals were sorted into treatment groups with approximately the same average serum glucose levels. Once sorted, the animals were housed five per cage and provided high fat rodent diet ad libitum.
Treatment Groups (n=5/group): • 1) db/db control (CMC) • 2) Compound 25 (0.1 mg/kg, in CMC) • 3) Compound 25 (0.3 mg/kg, in CMC) • 4) Compound 25 (1 mg/kg, in CMC)
Compound 25 was suspended in a solution of carboxymethyl cellulose (CMC; 1% carboxy methyl cellulose in H2O, with 10% polyethelene glycol 400), and administered to animals in a volume of 5 ml/kg/dose. The drug is administered by oral gavage once daily at the beginning of the artificial light cycle.
To monitor the effect of the tested compounds, animals were bled following a three-hour fast at the end of the dark cycle on days 0, 7, 14 of the treatment period. Fasting serum glucose and triglyceride levels were measured in duplicate. The blood is kept at room temperature to allow coagulation, after which the serum is separated and. assayed for glucose and triglyceride levels.

The test system of series [3] is KKA^y mice. Nature of the series: Oral treatment of type 2 diabetes in KKA^y mice (serum glucose, triglyceride, cholesterol). Type of series: in vivo, mouse. As to conditions: KKA^y mice, 1, 3, 10 mg/kg oral in 10% HPβCD, following 4 weeks of treatment, FIG. 2e. An excerpt: The procedure for this in-vivo assay for anti-diabetes activity was described in detail by Iwatsuka, et al. (1970 General Survey of Diabetic Features of Yellow KK Mice. Endocrinol. Japon. 17: 23–35, incorporated herein in its entirety by reference).
Experimental Procedures: Six to eight week-old male KKA^y mice (obtained from Jackson Labs of Bar Harbord, Me.) were housed in a fixed 12–12-hr artificial light-dark cycle, and maintained on a standard rodent diet provided ad libitum. Animals were allowed two days to acclimate in this experimental environment prior to the initiation of the study.
Prior to initiation of treatment with the compounds of the invention, the animals were bled from the tail vein (100–200 μL of whole blood) and serum levels of glucose and triglycerides were measured in duplicate (Trinder kits; Sigma, St. Louis, Mo.). Based on these initial measures, animals were sorted into groups with approximately the same average serum glucose levels. Once sorted, the animals were housed one per cage and provided rodent diet ad libitum. Unless otherwise indicated, compounds were suspended in sesame oil, and administered by oral gavage once daily to animals in a volume of 3 ml/kg/dose.
Treatment Group A (n=5/group): (See Results in FIG. 2a) • 1) KKA^y vehicle control (sesame oil) • 2) Compound 1 (3 mg/kg) • 3) Compound 1 (10 mg/kg) • 4) Compound 2 (3 mg/kg) • 5) Compound 2 (10 mg/kg)
Treatment Group B (n=6/group): (See Results in FIG. 2b) • 1) KKA^y vehicle control (sesame oil) • 2) Compound 11 (15 mg/kg)
Treatment Group C (n=6/group): (See Results in FIG. 2c) • 1) KKA^y vehicle control (sesame oil) • 2) Compound 13 (15 mg/kg)
Treatment Group D (n=6/group): (See Results in FIG. 2d) • 1) KKA^y vehicle control (CMC) • 2) Compound 25 (3 mg/kg, CMC) Compound 25 was suspended in a solution of carboxymethyl cellulose (CMC; 1% carboxy methyl cellulose in H2O, with 10% polyethelene glycol 400), and administered to animals in a volume of 5 ml/kg/dose.
Treatment Group E (n=5/group): (See Results in FIG. 2e) • 1) KKA^y vehicle control (10% HPβCD) • 2) Compound 25 (1 mg/kg) • 3) Compound 25 (3 mg/kg) • 4) Compound 25 (10 mg/kg) Compound 25 was dissolved in a 10% hydroxy propyl beta cyclodextrin solution, and administered to animals in a volume of 10 ml/kg/dose.
Serum glucose, triglyceride and/or cholesterol levels were measured in duplicate. The blood is kept at room temperature to allow coagulation, after which the serum is separated and assayed for glucose, triglyceride and/or cholesterol levels. As shown in FIGS. 2a–2d all of the compounds tested reduced serum glucose and triglyceride levels, some with doses as low as 3 mg/kg when administered once a day.

Series [4] relates to carcinogen induced mammary tumors. Nature of the series: Progression of carcinogen induced mammary tumors in Sprague Dawley rats. Type of series: in vivo, rat. As to conditions: oral once daily for four weeks. The method, then:
Procedure: Five week-old female Sprague Dawley rats (Harlan) were housed in a fixed 12–12-hr artificial light-dark cycle, and maintained on a standard rodent diet provided ad libitum. Animals were allowed two days to acclimate in this experimental environment prior to the initiation of the study.
To induce mammary tumors, the female […] were injected intraperitoneally with the carcinogen n-nitroso-n-methylurea, in a single dose of 50 mg/kg in acidified normal saline (pH 4 w/acetic acid) at a final volume of 10 mg/ml (5 ml/kg). After eight weeks, mammary tumors are detected, and the tumor bearing females are sorted into treatment groups. Once sorted, the animals were housed four per cage and provided rodent diet ad libitum. All animals are treated with compound 1 or a vehicle for four weeks, during which time changes in tumor size are monitored. Tumors were classified as regressing, static or progressing.
Treatment groups (n=8/group): • 1) Control (sesame oil) • 2) Compound 6 (20 mg/kg) • 3) Compound 11 (100 mg/kg) • 4) Compound 13 (50 mg/kg) • 5) Compound 24 (50 mg/kg) • 6) Compound 25 (20 mg/kg) • 7) Compound 25 (100 mg/kg)
All of the compounds tested were suspended in sesame oil, and administered to animals in a volume of 3 ml/kg/dose, except compound 25 which was dissolved in a 10% hydroxy propyl beta cyclodextrin solution, and administered to animals in a volume of 10 ml/kg/dose. All treatments were administered by oral gavage once daily for four weeks.
To monitor the effect of the tested compound, animals were examined for mammary tumors once every week. Tumors were classified into one of three categories, progressing, static or regressing.

Series [5] has as its system Mouse pre-adipocyte 3T3-L1 cells. As to the kind of experiment: Differentiation of 3T3-L1 pre-adipocytes in an in vitro assay (lipid content). Type of series: cell-based. As to conditions: 0.1 μM, 7 days; taken as reference. The method, then: The compounds of the invention have been screened in an in-vitro adipocyte differentiation assay, as described in Example 26. Mouse pre-adipocyte 3T3-L1 cells were treated with compounds at concentrations less than or equal to 10^−6 M for 7 days.
The compounds can be considered active for adipocyte differentiation if the lipid accumulation induced is at least about 20%, or at least about 40% of the lipid accumulation induced by 5-[3-(3,5,5,8,8-Pentamethyl-5,6,7,8-tetrahydro-naphthalen-2-yl)-4-trifluoromethoxy-benzylidene]-thiazolidine-2,4-dione when it is applied to control cultures of mouse preadipocyte 3T3-L1 cells at a concentration of about 1×10^−7 M.
The following protocol was used to determine adipocyte differentiation activity of the compounds of the invention: Mouse pre-adipocyte 3T3-L1 cells obtained from ATCC (American Tissue Culture Collection, MD) were initially grown in DME Dulbecco's modified Eagle's medium containing 4500 mg/L glucose; 4 mM L-glutamine; 10 U/ml Pen-G; 10 mcg/ml Streptomycin and 10% Bovine Calf Serum (CS) at 37° C. and 10% CO2. Cells were plated in 96 well plates at a density of approximately 3,000 cells/well and grown to confluence (when cells use 100% of the available space on the well) in the same medium. […] The cellular lysates were analyzed for their lipid content using the Triglyceride-GPO Trinder reagent from Sigma.

The test system is the same in series [6]. As to conditions: stated as previously shown; cited from earlier work.
Where [7] appears, read: oral once daily in CMC, compared to control animals, FIG. 3.

Counter-ions that a name gives are not always drawn.

As to `CCN1C(=O)CC(C)(C)c2cc(C)c(-c3cc(/C=C4\SC(=O)NC4=O)ccc3OC(F)(F)F)cc21` [Compound 25, 5-[3-(1-Ethyl-4,4,6-trimethyl-2-oxo-1,2,3,4-tetrahydro-quinolin-7-yl)-4-trifluoromethoxy-benzylidene]-thiazolidine-2,4-dione, TRIS Salt], the “concentration of compound in plasma” value in series [1] is recorded as “significantly higher concentration”. The oral bioavailability entry in series [1] (single oral dose 10 mg/kg, Compound 25 over Compound 24) is recorded as “improved bioavailability”. Also, the “dose ameliorating the symptoms of diabetes (as low as)” value in series [2] (once daily oral) was ≥ 0.3 mg/kg. Moreover, in series [2] (setting [7]), the fasting serum glucose entry is recorded as “reduced” and the fasting serum triglyceride entry was “reduced”. In series [3], the serum glucose level result was “unexpectedly strong and simultaneous reduction”; the “serum total cholesterol level” value is “unexpectedly strong and simultaneous reduction”; the serum triglyceride level entry is “unexpectedly strong and simultaneous reduction”. The “dose causing regression of tumors (as low as)” value in series [4] was ≥ 20 mg/kg. The regression of tumors result in series [4] (FIG. 6) is given as “caused the regression of tumors”. Moreover, in series [4] (vs vehicle treated controls, FIG. 6), the “growth / progression of mammary (breast cancer) tumors” value was “slow or cause regression”.
In the case of `Cc1cc2c(cc1-c1cc(/C=C3\SC(=O)NC3=O)ccc1OC(F)(F)F)C(C)(C)CCC2(C)C` [Compound 24, 5-[3-(3,5,5,8,8-Pentamethyl-5,6,7,8-tetrahydro-naphthalen-2-yl)-4-trifluoromethoxy-benzylidene]-thiazolidine-2,4-dione], the “concentration of compound in plasma” value in series [1] is “only detected as being present at near the limit of detection”. In addition, in series [5], the “differentiation of 3T3-L1 cells (lipid content), standard for differentiation activity” value turned out to be 100%. For the same compound, the “inducer of adipocyte differentiation” value in series [6] was “potent inducer of adipocyte differentiation”.
